The record followed here is patent publication US11419878B2, “Medicine obtained by combining FXR agonist and ARB” (Intercept Pharmaceuticals, Inc., priority 2016, dated 2022).

Assay [1] concerns TGF-β1. Put plainly: HHSC fibrosis marker gene expression, RT-PCR, TGF-β1. The settings on record: AT-II 10^-6M + LPS 10^-5M; ARB 10^-6M, obeticholic acid 5×10^-6M; 24 hours; monotherapy vs G2AL, combination vs monotherapy groups. Type of assay: cell-based, human. As to the method: The various combined effects of obeticholic acid and three types of ARBs (losartan, valsartan, and candesartan) were confirmed in an in vitro cell system experiment. Specifically, using human hepatic stellate cells (HHSC), which are implicated in the main mechanism of progression of hepatic fibrosis in NASH, the effects of administration of obeticholic acid in combination with the three ARBs of inhibiting HHSC proliferation capacity and the expression of fibrosis markers were evaluated according to the following method. Human hepatic stellate cells (HHSC) (also referred to as human hepatic star cells) Obeticholic acid (obtained from Intercept Pharmaceuticals, Inc. via Sumitomo Dainippon Pharma Co., Ltd.) was used as an FXR agonist, and commercial losartan (potassium salt of losartan; referred to in this working example simply as “losartan”) and valsartan and candesartan ([…] of candesartan; referred to in this working example simply as “candesartan”) were used as ARBs. Angiotensin II (AT-II) and/or lipopolysaccharide (LPS) were used (both AT1-mediated AT-II signalling and TLR4-mediated LPS signaling are known to play major roles in HSC activation and the progression of hepatic fibrosis). With respect to the effect of inhibiting fibrosis marker gene expression, collagen production capacity and TGF-β production capacity were evaluated by the RT-PCR method. 1) HHSCs were inoculated onto a 6-well plate in the amount of 300,000 cells/2 ml and allowed to proliferate in 1% FBS DMEM medium for 24 hours. 2) After 24 hours, the cells were divided into the following 7 groups and transferred to culture medium after adding the following drugs and/or reagents. Losartan was used as an ARB. Negative control group (G1): No drugs added (control) […] AT-II (10^-6M) Positive control group L […]): LPS (10^-5M) Positive control group AL ([…]): (10^-6M)+LPS (10^-5M) Obeticholic acid administration (G3): AT-II (10^-6M)+LPS (10^-5M)+obeticholic acid (5×10^-6M) ARB administration (G4): AT-II (10^-6M)+LPS (10^-5M)+ARB (10^-6M) Obeticholic acid+ARB combined administration (G5): AT-II (10^-6M)+LPS (10^-5M)+obeticholic acid (5×10^-6M)+ARB (10^-6M) […] Evaluations were conducted in the five groups G1, G2AL, G3, G4, and G5.

For assay [2], the system named is TGF-β1. Put plainly: Rat NASH model, RT-PCR of hepatic TGF-β1 mRNA expression. Type of assay: in vivo. The settings on record: OLETF rats, PS 8 weeks, obeticholic acid 30 mg/kg/day and/or losartan 30 mg/kg/day oral. As to the method: (§1) Using the liver sections from the rats in the various groups obtained in working example 1, an immunohistochemical study by immunohistological staining with α-smooth muscle actin (α-SMA) antibody and a quantitative analysis of transforming growth factor-β1 TGF-β1) and collagen (α1(I) procollagen) mRNA expression were conducted. α-SMA is known to be an indicator (marker) of activation of hepatic stellate cells (HSCs) (also known as hepatic star cells). Moreover, activation of hepatic stellate cells (HSC), overproduction of TGF-β1 (a fibrosis-promoting cytokine) accompanying said activation, and overproduction of extracellular matrix components such as collagen are thought to play a central role in the mechanism of progressive hepatic fibrosis in NASH. For this reason, mRNA expression of TGF-β1 and collagen (α1(I) procollagen) can be a fibrosis indicator (marker).
A comparative study was conducted by analyzing TGF-β1 and collagen (α1(I) procollagen) mRNA expression in the livers of the rates of the various groups of working example 1 by means of the quantitative real-time polymerase chain reaction (RT-PCR). Quantitation of the mRNA expression levels by RT-PCR was conducted on a StepOne Plus™ system (manufactured by Applied Biosystems®) using the fluorescent dye SYBR® Green

In assay [3] the test system is α-smooth muscle actin (α-SMA). As to the kind of experiment: Rat NASH model, immunohistological staining of liver sections with α-SMA antibody (HSC activation). Format: in vivo. The settings on record: OLETF rats, PS 8 weeks, obeticholic acid 30 mg/kg/day and/or losartan 30 mg/kg/day oral; for α-SMA index (α-SI) compared to the positive control group: p<0.01. As to the method:
as §1
Using the same method as described under [Histological analysis] in working example 1 above, except that immunohistological staining with α-SMA antibody was used instead of Sirius Red staining, a comparison of the micrographs among the various groups and a semiquantitative analysis of the immunohistochemical characteristics of the collected stained section images were carried out, and the blocking effect of obeticholic acid and losartan (administration groups, combined administration group) on HSC activation in the progression of hepatic fibrosis was evaluated.

Assay [4] concerns Otsuka Long-Evans Tokushima Fatty (OLETF) rats administered porcine serum (PS). Put plainly: Rat NASH model (OLETF rats given porcine serum), Sirius Red histology of hepatic fibrosis. The settings on record: obeticholic acid 30 mg/kg/day and/or losartan 30 mg/kg/day oral; for fibrosis index (FI) as fraction of the level in the positive control group: PS 8 weeks, p<0.01; for progression of hepatic fibrosis (micrographs of Sirius Red-stained liver sections): PS i.p. twice weekly 8 weeks. Type of assay: in vivo. As to the method:
As a rat NASH model, Otsuka Long-Evans Tokushima. Fatty (OLETF) rats, which are known as a model for naturally-occurring type II diabetes with obesity, were administered porcine serum (PS) in order to experimentally induce liver fibrosis, and the therapeutic effects of distilled water (vehicle administration group), obeticholic acid (an FXR agonist) and losartan (an ARB) (administration groups, combined administration group) were investigated according to the following method.
Male OLETF rats (n=40) and Long-Evans Tokushima Otsuka (LETO) rats=10; non-diabetic negative control group)
Obeticholic acid (obtained from Intercept Pharmaceuticals, Inc. via Sumitomo Dainippon Pharma Co., Ltd.) was used as an FXR agonist, and commercial losartan (potassium salt of losartan; referred to in this working example simply as “losartan”) was used as an ARB.
Obeticholic acid (30 mg/kg/day) and/or losartan (30 mg/kg/day) was/were given by forced oral administration; the administration period was 8 weeks in all cases.
12-week-old OLETF rats were randomly divided into 4 groups (G2, G3, G4, G5) (n=10 for each group) and given intraperitoneal administrations of 1.0 ml/kg of porcine serum (PS) twice weekly for 8 weeks. 12-week-old LETO rats (n=10) were taken as group G1 and administered PS in the same manner. On the same day on which PS administration was begun, the group G3 and G4 rats were respectively administered obeticholic acid (30 mg/kg/day) and losartan (30 mg/kg/day) daily for 8 weeks by forced continuous oral administration. The group G5 rats were given daily combined administration of obeticholic acid (30 mg/kg/day) and losartan (30 mg/kg/day) for 8 weeks in the same manner. The rats in the G1 group (LETO) and G2 group (OLETF) were administered distilled water as a vehicle instead of the drugs and taken as the negative and positive control group respectively (with the same administration method as in the drug groups).
In order to evaluate the progression of hepatic fibrosis, formalin-fixed paraffin-embedded liver sections (5 μm in width) were taken from rats that had completed the above testing and stained with Sirius Red. Micrographs of the stained sections were taken and collected (in all of the rats, microscopic images were collected with a total of 10 fields per sample), and the micrographs of the various groups were compared. In order to quantitate the progression of fibrosis in the various groups, a semiquantitative analysis of the histological characteristics of the images of the stained specimens collected was conducted using ImageJ software from the NIH (National Institutes of Health).

Each structure is given as a SMILES string.

In the case of `CC[C@H]1[C@@H](O)[C@@H]2[C@H](CC[C@]3(C)[C@@H]([C@H](C)CCC(=O)O)CC[C@@H]23)[C@@]2(C)CC[C@@H](O)C[C@@H]12` [obeticholic acid, 3α,7α-dihydroxy-6α-ethyl-5β-cholan-24-oic acid], the “TGF-β1 mRNA expression induced by AT-II and LPS in HHSC” value with TGF-β1 [1] is given as “statistically significant inhibition”. For the same compound, the “TGF-β1 mRNA expression in liver compared to the positive control group” value with TGF-β1 [2] is on record as “moderate decreasing tendency”. Moreover, in assay [3], the “increase in activated hepatic stellate cells (Ac-HSCs), micrographs of α-SMA stained sections” value was “moderately inhibited” and the “α-SMA index (α-SI) compared to the positive control group” value is listed as “moderate but significant decreases”. In assay [4], the “fibrosis index (FI) as fraction of the level in the positive control group” value was “approximately 6/10” and the “progression of hepatic fibrosis (micrographs of Sirius Red-stained liver sections)” value was “moderately inhibited”.
Regarding `CCCCc1nc(Cl)c(CO)n1Cc1ccc(-c2ccccc2-c2nn[nH]n2)cc1` [losartan], the “TGF-β1 mRNA expression induced by AT-II and LPS in HHSC” value in the assay with TGF-β1 [1] was “statistically significant inhibition”. For the same compound, in the assay on TGF-β1 [2], the “TGF-β1 mRNA expression in liver compared to the positive control group” value is reported as “moderate decreasing tendency”. For the same compound, in assay [3], the “increase in activated hepatic stellate cells (Ac-HSCs), micrographs of α-SMA stained sections” value was “moderately inhibited” and the “α-SMA index (α-SI) compared to the positive control group” value is “moderate but significant decreases”. Besides, in assay [4], the “fibrosis index (FI) as fraction of the level in the positive control group” value is reported as 7/10 and the “progression of hepatic fibrosis (micrographs of Sirius Red-stained liver sections)” value is recorded as “moderately inhibited”.
